System: MV-4-11 cells
Experiment: Gene expression microarray analysis (Affymetrix PrimeView) and GSEA
Type: cell-based, human
Parameters: RFU PODN (11730768_x_at) / Fold change /veh PODN (11730768_x_at) / RFU LINC00158 (11744669_a_at) / Fold change /veh LINC00158 (11744669_a_at) / RFU DUSP10 (11751237_a_at) / Fold change /veh DUSP10 (11751237_a_at) / RFU ID3 (11757404_x_at) / Fold change /veh ID3 (11757404_x_at) / RFU PLEKHG5 (11737974_s_at) / Fold change /veh PLEKHG5 (11737974_s_at) / RFU LRRC4B (11730491_at) / Fold change /veh LRRC4B (11730491_at) / RFU GIMAP4 (11747438_a_at) / Fold change /veh GIMAP4 (11747438_a_at) / RFU KRT8 (11758183_x_at) / Fold change /veh KRT8 (11758183_x_at) / RFU CNN1 (11734310_a_at) / Fold change /veh CNN1 (11734310_a_at) / RFU VPS37D (11726825_at) / Fold change /veh VPS37D (11726825_at) / RFU C10orf10 (11716522_x_at) / Fold change /veh C10orf10 (11716522_x_at) / RFU KIR2DL2 /// KIR2DL4 /// KIR2DL5A /// KIR2DL5B /// KIR2DS1 /// KIR2DS2 /// KIR2DS3 /// KIR2DS4 /// KIR3DL3 /// KIR3DL3 /// KIR3DS1 (11738374_at) / Fold change /veh KIR2DL2 /// KIR2DL4 /// KIR2DL5A /// KIR2DL5B /// KIR2DS1 /// KIR2DS2 /// KIR2DS3 /// KIR2DS4 /// KIR3DL3 /// KIR3DL3 /// KIR3DS1 (11738374_at) / RFU C1QL1 (11718748_at) / Fold change /veh C1QL1 (11718748_at) / RFU TMPRSS4 (11747572_a_at) / Fold change /veh TMPRSS4 (11747572_a_at) / RFU HAMP (11756126_x_at) / Fold change /veh HAMP (11756126_x_at) / RFU RNFT2 (11725882_a_at) / Fold change /veh RNFT2 (11725882_a_at) / RFU NR4A2 (11747474_a_at) / Fold change /veh NR4A2 (11747474_a_at) / RFU ABCC12 (11746883_a_at) / Fold change /veh ABCC12 (11746883_a_at) / RFU TMEM136 (11760407_x_at) / Fold change /veh TMEM136 (11760407_x_at) / RFU CLDN22 /// WWC2 (11732394_at) / Fold change /veh CLDN22 /// WWC2 (11732394_at) / RFU HLA-DPB1 (11760878_x_at) / Fold change /veh HLA-DPB1 (11760878_x_at) / RFU SPINT1 (11716480_a_at) / Fold change /veh SPINT1 (11716480_a_at) / RFU GAP43 (11754022_s_at) / Fold change /veh GAP43 (11754022_s_at) / RFU A4GNT (11735810_at) / Fold change /veh A4GNT (11735810_at) / RFU PRB3 (11715151_x_at) / Fold change /veh PRB3 (11715151_x_at) / RFU TUBB4B (11761932_at) / Fold change /veh TUBB4B (11761932_at) / RFU CAPN14 (11732068_a_at) / Fold change /veh CAPN14 (11732068_a_at) / RFU TMCC2 (11721928_a_at) / Fold change /veh TMCC2 (11721928_a_at) / RFU IRGQ (11745062_a_at) / Fold change /veh IRGQ (11745062_a_at) / RFU FAM174B (11720279_a_at) / Fold change /veh FAM174B (11720279_a_at) / RFU TMPRSS4 (11748680_a_at) / Fold change /veh TMPRSS4 (11748680_a_at) / RFU FAM212B (11763350_a_at) / Fold change /veh FAM212B (11763350_a_at) / RFU PLEKHG5 (11743358_a_at) / Fold change /veh PLEKHG5 (11743358_a_at) / RFU ZSCAN30 (11745921_a_at) / Fold change /veh ZSCAN30 (11745921_a_at) / RFU CMKLR1 (11741424_a_at) / Fold change /veh CMKLR1 (11741424_a_at) / RFU LOC101060620 /// MAPK8IP1 (11723275_at) / Fold change /veh LOC101060620 /// MAPK8IP1 (11723275_at) / RFU SPTSSB (11747773_x_at) / Fold change /veh SPTSSB (11747773_x_at) / RFU PRSS12 (11739890_at) / Fold change /veh PRSS12 (11739890_at) / RFU BIN1 (11741810_x_at) / Fold change /veh BIN1 (11741810_x_at) / RFU WNT11 (11732464_a_at) / Fold change /veh WNT11 (11732464_a_at) / RFU C10orf10 (11716521_a_at) / Fold change /veh C10orf10 (11716521_a_at) / RFU C5orf56 (11738089_at) / Fold change /veh C5orf56 (11738089_at) / RFU CYB561 (11721691_x_at) / Fold change /veh CYB561 (11721691_x_at) / RFU ANKRD19P (11752326_a_at) / Fold change /veh ANKRD19P (11752326_a_at) / RFU OR2T12 /// OR2T33 /// OR2T8 (11738714_s_at) / Fold change /veh OR2T12 /// OR2T33 /// OR2T8 (11738714_s_at) / RFU VCAN (11748164_a_at) / Fold change /veh VCAN (11748164_a_at) / RFU JSRP1 (11732532_at) / Fold change /veh JSRP1 (11732532_at) / RFU KRTAP10-11 (11738290_x_at) / Fold change /veh KRTAP10-11 (11738290_x_at) / RFU MYO3A (11730013_a_at) / Fold change /veh MYO3A (11730013_a_at) / RFU EBF3 (11725865_a_at) / Fold change /veh EBF3 (11725865_a_at) / RFU CAMK2N1 (11719241_x_at) / Fold change /veh CAMK2N1 (11719241_x_at) / RFU C5orf56 (11738088_a_at) / Fold change /veh C5orf56 (11738088_a_at) / RFU OLFML3 (11715873_a_at) / Fold change /veh OLFML3 (11715873_a_at) / RFU LOC100653217 /// NTM (11731650_a_at) / Fold change /veh LOC100653217 /// NTM (11731650_a_at) / RFU MAPK11 (11762145_a_at) / Fold change /veh MAPK11 (11762145_a_at) / RFU FIZ1 (11724087_x_at) / Fold change /veh FIZ1 (11724087_x_at) / RFU OASL (11726364_x_at) / Fold change /veh OASL (11726364_x_at) / RFU SOX15 (11748057_x_at) / Fold change /veh SOX15 (11748057_x_at) / RFU CD79A (11719716_a_at) / Fold change /veh CD79A (11719716_a_at) / RFU HIST1H1D (11736915_at) / Fold change /veh HIST1H1D (11736915_at) / RFU CASKIN2 (11723855_a_at) / Fold change /veh CASKIN2 (11723855_a_at) / RFU LOC730098 (11760151_x_at) / Fold change /veh LOC730098 (11760151_x_at) / RFU OR4N2 (11742367_at) / Fold change /veh OR4N2 (11742367_at) / RFU PRRT2 (11749266_a_at) / Fold change /veh PRRT2 (11749266_a_at) / RFU SNX32 (11753110_a_at) / Fold change /veh SNX32 (11753110_a_at) / RFU CDHR5 (11726645_a_at) / Fold change /veh CDHR5 (11726645_a_at) / RFU RCAN1 (11760418_a_at) / Fold change /veh RCAN1 (11760418_a_at) / RFU FAM167A (11723789_a_at) / Fold change /veh FAM167A (11723789_a_at) / RFU FAM26E (11764081_at) / Fold change /veh FAM26E (11764081_at) / RFU ISYNA1 (11749810_s_at) / Fold change /veh ISYNA1 (11749810_s_at) / RFU ACY1 (11761880_at) / Fold change /veh ACY1 (11761880_at) / RFU 11764098_at / Fold change /veh 11764098_at / RFU SAMD14 (11745864_x_at) / Fold change /veh SAMD14 (11745864_x_at) / RFU NPB (11741838_a_at) / Fold change /veh NPB (11741838_a_at) / RFU TMPRSS6 (11731388_a_at) / Fold change /veh TMPRSS6 (11731388_a_at) / RFU KRTAP10-2 (11738614_at) / Fold change /veh KRTAP10-2 (11738614_at) / RFU ARHGAP8 /// PRR5-ARHGAP8 (11727945_x_at) / Fold change /veh ARHGAP8 /// PRR5-ARHGAP8 (11727945_x_at) / RFU KRTAP5-7 /// NADSYN1 (11734609_at) / Fold change /veh KRTAP5-7 /// NADSYN1 (11734609_at) / RFU RASL12 (11751679_a_at) / Fold change /veh RASL12 (11751679_a_at) / RFU CDKN2B (11736163_a_at) / Fold change /veh CDKN2B (11736163_a_at) / RFU PRF1 (11729649_at) / Fold change /veh PRF1 (11729649_at) / RFU, ZNF638 /// ZNF638-IT1 / Fold change vs veh, ZNF638 /// ZNF638-IT1 / RFU, PANK3 / Fold change vs veh, PANK3 / RFU, SH3YL1 / Fold change vs veh, SH3YL1 / RFU, ZEB2 / Fold change vs veh, ZEB2 / RFU, NRIP1 / Fold change vs veh, NRIP1 / RFU, PTTG1IP / Fold change vs veh, PTTG1IP / RFU, CAPN2 / Fold change vs veh, CAPN2 / RFU, MED14 / Fold change vs veh, MED14 / RFU, SNORA58 / Fold change vs veh, SNORA58 / RFU, C1orf63 / Fold change vs veh, C1orf63 / RFU, LRRFIP1 / Fold change vs veh, LRRFIP1 / RFU, NDUFAF7 / Fold change vs veh, NDUFAF7 / RFU, SLC12A2 / Fold change vs veh, SLC12A2 / RFU, IBTK / Fold change vs veh, IBTK / RFU, ESF1 / Fold change vs veh, ESF1 / Fold change vs veh, TMEM50B / RFU, TAOK1 / Fold change vs veh, TAOK1 / RFU, ACBD3 / Fold change vs veh, ACBD3 / RFU, TMA16 / Fold change vs veh, TMA16 / RFU, RWDD3 / Fold change vs veh, RWDD3 / RFU, BCAT1 / Fold change vs veh, BCAT1 / RFU, EDEM3 / Fold change vs veh, EDEM3 / RFU, TMEM33 / Fold change vs veh, TMEM33 / RFU, WDR75 / Fold change vs veh, WDR75 / RFU, AHCTF1 / Fold change vs veh, AHCTF1 / RFU, TFRC / Fold change vs veh, TFRC / RFU, ZDHHC17 / Fold change vs veh, ZDHHC17 / RFU, NOM1 / Fold change vs veh, NOM1 / RFU, ARL8B / Fold change vs veh, ARL8B / RFU, ZBTB11 / Fold change vs veh, ZBTB11 / RFU, TAMM41 / Fold change vs veh, TAMM41 / RFU, KIAA1704 /// LOC100996395 / Fold change vs veh, KIAA1704 /// LOC100996395 / RFU, ING1 / Fold change vs veh, ING1 / RFU, TRMT61B / Fold change vs veh, TRMT61B / RFU, FUBP3 / Fold change vs veh, FUBP3 / RFU, TP53 / Fold change vs veh, TP53 / RFU, TNKS2 / Fold change vs veh, TNKS2 / RFU, ZFP14 / Fold change vs veh, ZFP14 / RFU, ACTR2 / Fold change vs veh, ACTR2 / RFU, PPP3R1 / Fold change vs veh, PPP3R1 / RFU, PIK3R1 / Fold change vs veh, PIK3R1 / RFU, HNRNPA1 / Fold change vs veh, HNRNPA1 / RFU, RNF170 / Fold change vs veh, RNF170 / RFU, ZNF28 / Fold change vs veh, ZNF28 / RFU, RNGTT / Fold change vs veh, RNGTT / RFU, OGT / Fold change vs veh, OGT / RFU, BRD1 / Fold change vs veh, BRD1 / RFU, MARS / Fold change vs veh, MARS / RFU, ZNF655 / Fold change vs veh, ZNF655 / RFU, FAHD1 / Fold change vs veh, FAHD1 / RFU, BDP1 / Fold change vs veh, BDP1 / RFU, LRRCC1 / Fold change vs veh, LRRCC1 / RFU, ARID1A / Fold change vs veh, ARID1A / RFU, ZNF146 / Fold change vs veh, ZNF146 / RFU, ZNF330 / Fold change vs veh, ZNF330 / RFU, GPN3 / Fold change vs veh, GPN3 / RFU, C9orf123 / Fold change vs veh, C9orf123 / RFU, N4BP2L2 / Fold change vs veh, N4BP2L2 / RFU, ARFIP1 / Fold change vs veh, ARFIP1 / RFU, FAM179B / Fold change vs veh, FAM179B / RFU, BCL10 / Fold change vs veh, BCL10 / RFU, UHRF1BP1L / Fold change vs veh, UHRF1BP1L / RFU, BET1 / Fold change vs veh, BET1 / RFU, CNOT2 / Fold change vs veh, CNOT2 / RFU, ZNF268 / Fold change vs veh, ZNF268 / Fold change vs veh, ZNF507 / RFU, DGCR2 / Fold change vs veh, DGCR2 / RFU, WDSUB1 / Fold change vs veh, WDSUB1 / Fold change vs veh, HSP90B1 /// MIR3652 / RFU, ADSS / Fold change vs veh, ADSS / RFU, GK / Fold change vs veh, GK / RFU, ZNF148 / Fold change vs veh, ZNF148 / RFU, TAF9 / Fold change vs veh, TAF9 / RFU, SLC1A5 / Fold change vs veh, SLC1A5 / RFU, SLMO2 / Fold change vs veh, SLMO2 / RFU, ABCC4 / Fold change vs veh, ABCC4 / RFU, LOC101060439 /// RAP1B / Fold change vs veh, LOC101060439 /// RAP1B / RFU, RFX7 / Fold change vs veh, RFX7 / RFU, GTPBP10 / Fold change vs veh, GTPBP10 / RFU, CNEP1R1 / Fold change vs veh, CNEP1R1 / RFU, BIVM-ERCC5 /// ERCC5 / Fold change vs veh, BIVM-ERCC5 /// ERCC5 / RFU, ILF3 / Fold change vs veh, ILF3 / RFU 11762660_at / Fold change /veh 11762660_at / RFU VCAN (11757783_s_at) / Fold change /veh VCAN (11757783_s_at) / RFU DDX43 (11728927_at) / Fold change /veh DDX43 (11728927_at) / RFU KRT8 (11758188_x_at) / Fold change /veh KRT8 (11758188_x_at) / RFU NKD1 (11759106_at) / Fold change /veh NKD1 (11759106_at) / RFU SRD5A1 (11742802_a_at) / Fold change /veh SRD5A1 (11742802_a_at) / RFU TPSAB1 /// TPSB2 (11721975_s_at) / Fold change /veh TPSAB1 /// TPSB2 (11721975_s_at) / RFU GSTM3 (11746129_a_at) / Fold change /veh GSTM3 (11746129_a_at) / RFU IL23R (11737362_x_at) / Fold change /veh IL23R (11737362_x_at) / RFU TMEM51 (11727254_a_at) / Fold change /veh TMEM51 (11727254_a_at) / RFU PIWIL2 (11732686_x_at) / Fold change /veh PIWIL2 (11732686_x_at) / RFU ORM1 (11744905_x_at) / Fold change /veh ORM1 (11744905_x_at) / RFU CCDC152 (11743942_at) / Fold change /veh CCDC152 (11743942_at) / RFU ECM1 (11717891_a_at) / Fold change /veh ECM1 (11717891_a_at) / RFU IL23R (11748794_a_at) / Fold change /veh IL23R (11748794_a_at) / RFU TNFAIP8L3 (11732012_x_at) / Fold change /veh TNFAIP8L3 (11732012_x_at) / RFU MBOAT4 (11741988_at) / Fold change /veh MBOAT4 (11741988_at) / RFU 11764193_at / Fold change /veh 11764193_at / RFU TMEM53 (11763286_at) / Fold change /veh TMEM53 (11763286_at) / RFU MAGEB2 (11727129_at) / Fold change /veh MAGEB2 (11727129_at) / RFU TMEM200A (11744735_a_at) / Fold change /veh TMEM200A (11744735_a_at) / RFU CCDC152 (11751479_a_at) / Fold change /veh CCDC152 (11751479_a_at) / RFU FAM211A (11726209_a_at) / Fold change /veh FAM211A (11726209_a_at) / RFU RGS16 (11746705_a_at) / Fold change /veh RGS16 (11746705_a_at) / RFU VCAN (11755009_s_at) / Fold change /veh VCAN (11755009_s_at) / RFU RHOB (11743442_s_at) / Fold change /veh RHOB (11743442_s_at) / RFU RGS16 (11720943_a_at) / Fold change /veh RGS16 (11720943_a_at) / RFU RGS16 (11720944_at) / Fold change /veh RGS16 (11720944_at) / RFU, VPS4B / Fold change vs veh, VPS4B / RFU, CREB1 / Fold change vs veh, CREB1 / RFU, DNAJC13 / Fold change vs veh, DNAJC13 / RFU, GNAQ / Fold change vs veh, GNAQ / RFU, CDK5R1 / Fold change vs veh, CDK5R1 / RFU, ZRANB3 / Fold change vs veh, ZRANB3 / RFU, CUL4A / Fold change vs veh, CUL4A / RFU, CCNY / Fold change vs veh, CCNY / RFU, UFL1 / Fold change vs veh, UFL1 / RFU, COG3 / Fold change vs veh, COG3 / RFU, DIAPH2 / Fold change vs veh, DIAPH2 / RFU, SKA2 / Fold change vs veh, SKA2 / RFU, AFF3 / Fold change vs veh, AFF3 / RFU, LMF1 / Fold change vs veh, LMF1 / RFU, IPO11 / Fold change vs veh, IPO11 / RFU, DFFB / Fold change vs veh, DFFB / RFU, FOXP1 / Fold change vs veh, FOXP1 / RFU, CARD8 / Fold change vs veh, CARD8 / RFU, STRN3 / Fold change vs veh, STRN3 / RFU, ADK / Fold change vs veh, ADK / RFU, RASSF2 / Fold change vs veh, RASSF2 / RFU, WIPF1 / Fold change vs veh, WIPF1 / RFU, LARP1B / Fold change vs veh, LARP1B / RFU, RASA1 / Fold change vs veh, RASA1 / RFU, RB1 / Fold change vs veh, RB1 / RFU, PPFIA1 / Fold change vs veh, PPFIA1 / RFU, MAT2A / Fold change vs veh, MAT2A / RFU, CCT5 / Fold change vs veh, CCT5 / RFU, WDR92 / Fold change vs veh, WDR92 / RFU, CUX1 / Fold change vs veh, CUX1 / RFU, TTC7A / Fold change vs veh, TTC7A / RFU, TMEM135 / Fold change vs veh, TMEM135 / RFU, DEPTOR / Fold change vs veh, DEPTOR / RFU, CPM / Fold change vs veh, CPM / RFU, DNAJB6 / Fold change vs veh, DNAJB6 / RFU, CACNA2D3 / Fold change vs veh, CACNA2D3 / RFU, DTX4 / Fold change vs veh, DTX4 / RFU, TFCP2 / Fold change vs veh, TFCP2 / RFU, GMCL1 /// GMCL1P1 / Fold change vs veh, GMCL1 /// GMCL1P1 / RFU, AEBP2 / Fold change vs veh, AEBP2 / RFU, SNHG1 /// SNORD22 /// SNORD25 /// SNORD26 /// SNORD27 /// SNORD28 /// SNORD29 /// SNORD31 / Fold change vs veh, SNHG1 /// SNORD22 /// SNORD25 /// SNORD26 /// SNORD27 /// SNORD28 /// SNORD29 /// SNORD31 / Fold change (Aza/veh), C12orf56 (ProbeSet 11735607_a_at) / Fold change (ACY-1035/veh), C12orf56 (ProbeSet 11735607_a_at) / Fold change (Aza/veh), FGFR1OP (ProbeSet 11751329_s_at) / Fold change (ACY-1035/veh), FGFR1OP (ProbeSet 11751329_s_at) / Fold change (Aza/veh), VPS36 (ProbeSet 11739960_a_at) / Fold change (ACY-1035/veh), VPS36 (ProbeSet 11739960_a_at) / RFU SYPL1 (11715823_x_at) / Fold change /veh SYPL1 (11715823_x_at) / RFU IGFBP7 (11715501_s_at) / Fold change /veh IGFBP7 (11715501_s_at) / RFU REEP3 (11722064_at) / Fold change /veh REEP3 (11722064_at) / RFU IGLL1 (11728026_x_at) / Fold change /veh IGLL1 (11728026_x_at): dose or concentration left out as unconfirmed
Conditions: ProbeSet 11750457_a_at; LIST B

Nc1ccc(-c2cccs2)cc1NC(=O)c1ccc2c(c1)cc(C1CC1)n2CCN1CCOCC1 [ACY-1035]
RFU, GTPBP10: 30.83 RFU

From paper PMC5218480 (PLoS ONE, 2017)
